{"source": "ChEMBL document CHEMBL3124851", "about": "“A perspective on natural products research and ethnopharmacology in Mexico: the eagle and the serpent on the prickly pear cactus” (J Nat Prod, 2014)", "key": {"[1]": {"test": "Stimulation of dopaminergic neurons in rat posterior ventral tegmental area relative to ethanol", "type": "functional"}, "[2]": {"target": "D(3) dopamine receptor (Homo sapiens, UniProt P35462)", "sequence (P35462 whole entry)": "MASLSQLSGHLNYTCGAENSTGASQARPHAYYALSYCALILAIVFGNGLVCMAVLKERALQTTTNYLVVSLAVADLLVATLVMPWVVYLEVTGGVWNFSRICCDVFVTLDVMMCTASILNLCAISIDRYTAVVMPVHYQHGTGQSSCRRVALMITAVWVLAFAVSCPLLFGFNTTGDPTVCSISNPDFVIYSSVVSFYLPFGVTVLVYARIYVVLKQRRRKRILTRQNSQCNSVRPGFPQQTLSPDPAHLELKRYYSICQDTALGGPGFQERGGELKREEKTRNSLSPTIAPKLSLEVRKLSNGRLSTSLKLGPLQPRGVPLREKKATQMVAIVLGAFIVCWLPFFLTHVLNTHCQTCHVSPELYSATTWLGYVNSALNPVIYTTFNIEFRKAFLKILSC", "test": "Agonist activity at dopamine D3 receptor (unknown origin)"}, "[3]": {"species_on_record": "Rattus norvegicus", "test": "Increase in dopamine level in rat striatum by microdialysis assay (reference value: 4.2 nM)", "type": "functional"}, "[4]": {"test_system": "Mus musculus", "test": "Antinociceptive activity in mouse at 3 mg/kg, ip by writhing test", "type": "functional", "conditions": "route intraperitoneal"}, "[5]": {"test_system": "Ileum", "test": "Spasmolytic activity in guinea pig ileum", "type": "functional, tissue-based", "conditions": "Cavia porcellus"}, "[6]": {"test_system": "Mus musculus", "test": "Antinociceptive activity in mouse at 2 mg/kg, ip by writhing test", "type": "functional", "conditions": "route intraperitoneal"}}}
{"smiles": "CC1NCCc2cc(O)c(O)cc21", "note": "(configuration not stated)", "values": [{"measurement": "fold change (FC)", "setting": "[1]", "value": 1000000}]}
{"smiles": "C[C@@H]1NCCc2cc(O)c(O)cc21", "values": [{"measurement": "Ki", "setting": "[2]", "value": 500, "unit": "nM"}, {"measurement": "Activity", "setting": "[3]", "value": 21.5, "unit": "nM"}]}
{"smiles": "C[C@H]1[C@H](C)CC[C@]2(C(=O)O)CC[C@]3(C)C(=CC[C@@H]4[C@@]5(C)CC[C@H](O)C(C)(C)[C@@H]5CC[C@]43C)[C@H]12", "note": "[URSOLIC ACID]", "values": [{"measurement": "Activity", "setting": "[4]", "value": 50, "unit": "%"}]}
{"smiles": "COc1ccc(-c2cc(=O)c3c(O)cc(O)cc3o2)cc1", "note": "[ACACETIN]", "values": [{"measurement": "IC50", "setting": "[5]", "value": 1100, "unit": "nM"}, {"measurement": "Activity", "setting": "[6]", "value": 50, "unit": "%"}]}
{"smiles": "C[C@H]1NCCc2cc(O)c(O)cc21", "values": [{"measurement": "Activity", "setting": "[3]", "value": 300, "unit": "nM"}]}
